Like-named read-outs stand apart in the source and are kept apart here.
Legend:
WI-38 cells [1] = assay: Long-term effects on cell viability (5 days, ATP; morphology, PI imaging); format: cell-based; conditions: 10 μM;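 on Luminescence signal for ATP measurement, day-2 Average: compounds at 10 µM with ATP read daily over 5 days of treatment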;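 on Luminescence signal for ATP measurement, day-3 Average: compounds at 10 µM with ATP read daily over 5 days of treatment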;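 on Luminescence signal for ATP measurement, day-4 Average: compounds at 10 µM with ATP read daily over 5 days of treatment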;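 on Luminescence signal for ATP measurement, day-5 Average: compounds at 10 µM with ATP read daily over 5 days of treatment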
NRF2 = assay: qPCR analysis of NRF2-regulated genes; format: cell-based, human; conditions: for Potential NRF2 Activation (>=2 target genes induced, by >=1.5-fold): Assay 13(p); for fold induction at 10 µM: Homo sapiens
Outline: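 Expression of HMOX1, NQO1, GCLC and GSTM1 measured by qPCR relative to B2M, PPIA and GAPDH. Cells were WI-38 fibroblasts exposed 24 hrs to 10 μM compound, with RNA and cDNA prepared via Cells-to-Ct. Where stated, cells were first transfected 36 hrs with FOXO3 or NRF2 siRNA at 10 nM.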

[2] = Summary score for characterization of 38 core set hits; conditions: for D = Triple resistant: 2-point score, multiplex resistance (cadmium, MMS, H2O2); for S = Sum of Negative scores: human; for C = H2O2- & Cd-resistant: score, resistance to both H2O2 and cadmium
Outline: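 Hits from a small-molecule screen for H2O2 resistance were scored across characterization assays. Multiplex resistance, FOXO3 and/or NRF2 activation and mTOR down-regulation each earned 2 points. C. elegans lifespan, tested in 4 to 6 independent trials, scored 0–2, and DNA-damaging or cytotoxic effects in cultured human cells cost one point.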

[3] = tested on: human dermal fibroblast (HDF) primary cells; assay: H2O2-resistance in primary human dermal fibroblasts; format: cell-based; conditions: for fold induction at 10 µM: Homo sapiens; for Assay 6: H2O2-resistant, at 10 uM, human dermal fibroblast (HDF) primary cells: YES/NO
WI-38 cells [4] = assay: Propidium iodide (PI) cell-death imaging upon H2O2 stress; format: cell-based, human; conditions: for Assay 7: H2O2-resistant, at 10 uM, validated by propidium iodide (PI) cell-death imaging: w/H2O2, 3 hrs/4 hrs/5 hrs, YES/NO; for cytotoxicity at 10 µM: Homo sapiens, WI-38
[5] = 24 h, Assay 12(o), at 10 uM, qPCR, read-out: Induction of NRF2-regulated genes: GSTM1 normalized fold-change
[6] = 24 h, Assay 12(o), at 10 uM, qPCR, read-out: Induction of NRF2-regulated genes: HMOX1 normalized fold-change
[7] = 24 h, Assay 12(o), at 10 uM, qPCR, read-out: Induction of NRF2-regulated genes: NQO1 normalized fold-change
[8] = rounded fold change, WI-38 cells, 10 μM, 24 hrs (RP11 for Gr-1D, RP29 for Gr-4D), read-out: Summary of effects on NRF2-regulated genes: HMOX1
[9] = rounded fold change, WI-38 cells, 10 μM, 24 hrs (RP29 for Gr-4D), read-out: Summary of effects on NRF2-regulated genes: GSTM1
[10] = rounded fold change, WI-38 cells, 10 μM, 24 hrs (RP29 for Gr-4D), read-out: Summary of effects on NRF2-regulated genes: NQO1
[11] = 10 μM, 24 hrs, WI-38, read-out: Expression of at least two NRF2 target genes
[12] = 10 μM, 24 hrs, WI-38 cells, qPCR, normalized to B2M, n = 4, read-out: GSTM1 expression, normalized fold change (NRF2-regulated gene)
[13] = 10 μM, 24 hrs, WI-38 cells, qPCR, normalized to B2M, n = 4, read-out: HMOX1 expression, normalized fold change (NRF2-regulated gene)
[14] = 10 μM, 24 hrs, WI-38 cells, qPCR, normalized to B2M, n = 4, read-out: NQO1 expression, normalized fold change (NRF2-regulated gene)
[15] = WI-38 cells, 10 μM, 24 hrs, n=4, qPCR normalized by B2M, read-out: GCLC Normalized fold change
[16] = WI-38 cells, 10 μM, 24 hrs, n=4, qPCR normalized by B2M, read-out: GSTM1 Normalized fold change
[17] = WI-38 cells, 10 μM, 24 hrs, n=4, qPCR normalized by B2M, read-out: HMOX1 Normalized fold change
[18] = WI-38 cells, 10 μM, 24 hrs, n=4, qPCR normalized by B2M, read-out: NQO1 Normalized fold change
[19] = Experiment 1, HDF cells, read-out: Experiment 1, HDF cells (under H2O2 stress treatment), at 10 uM (fold change)
[20] = Experiment 2, HDF cells, read-out: Experiment 2, HDF cells (under H2O2 stress treatment), at 10 uM (fold change)
[21] = H2O2 3 hrs, 10 uM, n = 6, negative control 5.44% ± 0.79%, read-out: Percentage of propidium iodide-positive dead cells (under H2O2 stress treatment), 3 hrs
[22] = H2O2 4 hrs, 10 uM, n = 6, negative control 16.81% ± 1.42%, read-out: Percentage of propidium iodide-positive dead cells (under H2O2 stress treatment), 4 hrs
[23] = pre-treatment at 10 uM, 3.5 hours of H2O2, DMSO control 27.4% ± 6.5%, */**/*** = reduced by one/two/three standard deviations, read-out: Percentage of propidium iodide-positive dead cells (under H2O2 stress treatment), at 10 uM

| SMILES | O = Potential toxicity (WI-38 cells [1]; human, 5 days) | Q = Potential toxicity (WI-38 cells [1]; human, 5 days) | F = Potential NRF2 Activation (NRF2; 2-point score) | fold induction at 10 µM (NRF2; [7]) | fold induction at 10 µM (NRF2; [8]) | fold induction at 10 µM (NRF2; [10]) | fold induction at 10 µM (NRF2; [13]) | fold induction at 10 µM (NRF2; [14]) | fold induction at 10 µM (NRF2; [15]) | fold induction at 10 µM (NRF2; [16]) | fold induction at 10 µM (NRF2; [17]) | fold induction at 10 µM (NRF2; [18]) | F = Potential NRF2 Activation (NRF2; summary score) | D = Triple resistant [2] | S = Sum of Negative scores [2] | C = H2O2- & Cd-resistant [2] | fold induction at 10 µM [3, 19] | fold induction at 10 µM [3, 20] | Assay 7: H2O2-resistant, at 10 uM, validated by propidium iodide (PI) cell-death imaging (WI-38 cells [4]; 10 uM) | cytotoxicity at 10 µM (WI-38 cells [4]; [21]) [%] | other results |
| --- | --- | --- | --- | --- | --- | --- | --- | --- | --- | --- | --- | --- | --- | --- | --- | --- | --- | --- | --- | --- | --- |
| Cc1cc(C)c(C(=O)/C=C/c2ccccc2F)c(O)n1 [O18] | 0 | 0 | 2 | 2.94 | 23.8 | 2.94 | 23.8 | 2.94 | 2.1 | 1.52 | 23.8 | 2.94 | 2 | 0 | 0 | 0 | 72.5 | 1.27 | YES | 3.66 | Luminescence signal for ATP measurement, day-1 Average (WI-38 cells [1]; Batch 1, day-1, n = 6, day-0 luminescence = 320956 ± 24708): 453443; Luminescence signal for ATP measurement, day-2 Average (WI-38 cells [1]; Batch 1, day-2, n = 6, day-0 luminescence = 320956 ± 24708): 639628; Luminescence signal for ATP measurement, day-3 Average (WI-38 cells [1]; Batch 1, day-3, n = 6, day-0 luminescence = 320956 ± 24708): 693776; Luminescence signal for ATP measurement, day-4 Average (WI-38 cells [1]; Batch 1, day-4, n = 6, day-0 luminescence = 320956 ± 24708): 825623; Luminescence signal for ATP measurement, day-5 Average (WI-38 cells [1]; Batch 1, day-5, n = 6, day-0 luminescence = 320956 ± 24708): 760275; viability at 10 µM (WI-38 cells [1]; Homo sapiens, WI-38, 120 h, Batch 1, day-5, DMSO ctrl = 100.0%, read-out: ATP luminescence by day-5 normalized): 74%; Potential NRF2 Activation (>=2 target genes induced, by >=1.5-fold) (NRF2): YES; fold induction at 10 µM (NRF2; 24 h, Assay 12(o), at 10 uM, qPCR, read-out: Induction of NRF2-regulated genes: GCLC normalized fold-change): 2.1; fold induction at 10 µM (NRF2; [5]): 1.52; fold induction at 10 µM (NRF2; [6]): 23.8; fold induction at 10 µM (NRF2; [9]): 1.52; fold induction at 10 µM (NRF2; rounded fold change, WI-38 cells, 10 μM, 24 hrs, read-out: Summary of effects on NRF2-regulated genes: GCLC): 2.1; fold induction at 10 µM (NRF2; [11]): > 1.5; fold induction at 10 µM (NRF2; 10 μM, 24 hrs, WI-38 cells, qPCR, normalized to B2M, n = 4, read-out: GCLC expression, normalized fold change (NRF2-regulated gene)): 2.1; fold induction at 10 µM (NRF2; [12]): 1.52; cytotoxicity at 10 µM (WI-38 cells [4]; [22]): 3.06%; cytotoxicity at 10 µM (WI-38 cells [4]; H2O2 5 hrs, 10 uM, n = 6, negative control 22.50% ± 1.53%, read-out: Percentage of propidium iodide-positive dead cells (under H2O2 stress treatment), 5 hrs): 4.16%; cytotoxicity at 10 µM (WI-38 cells [4]; [23]): 4.5% |
| O=[N+]([O-])c1ccccc1S(=O)(=O)Nc1cccc2cccnc12 [Gr-3A] | 0 | 0 | 0 | 1.3 | 1.41 | 1.37 | 1.41 | 1.37 | 1.01 | 1.35 | 1.41 | 1.37 | 0 | 0 | 1 | 1 | 2.38 | 1.67 | YES | 5.54 | Reduction of ATP content after 5 days of continuous incubation (WI-38 cells [1]; human, 5 days): more than 40%; Assay 6: H2O2-resistant, at 10 uM, human dermal fibroblast (HDF) primary cells [3]: YES; cytotoxicity at 10 µM (WI-38 cells [4]; [23]): 12.4% |
| O=C(/C(=C/c1ccc(Cl)cc1)c1nc2ccccc2[nH]1)c1ccccc1 [Gr-4D] | 0 | 0 | 2 | 2.56 | 4.55 | 2.56 | 4.55 | 2.56 | 0.863 | 1.52 | 4.55 | 2.56 | 2 | 0 | 0 | 1 | 1.06 | 2 | YES | 1.58 | Induction of at least two NRF2-regulated genes (HMOX1, NQO1, GCLC, GSTM1) (NRF2; 10 μM, 24 hrs, WI-38): could induce both FOXO3- and NRF2-regulated genes; Potential NRF2 Activation (>=2 target genes induced, by >=1.5-fold) (NRF2): YES; fold induction at 10 µM (NRF2; [5]): 1.52; fold induction at 10 µM (NRF2; [6]): 4.55; fold induction at 10 µM (NRF2; [9]): 1.52; fold induction at 10 µM (NRF2; [11]): > 1.5; fold induction at 10 µM (NRF2; [12]): 1.52; Summary of effects on NRF2-regulated genes: HMOX1, second run (NRF2; run RP42 (Gr-1D) / RP52 (Gr-4D), WI-38 cells, 10 μM): 2.40,; Summary of effects on NRF2-regulated genes: NQO1, second run (NRF2; run RP52 (Gr-4D), WI-38 cells, 10 μM): 1.49,; Assay 6: H2O2-resistant, at 10 uM, human dermal fibroblast (HDF) primary cells [3]: YES; cytotoxicity at 10 µM (WI-38 cells [4]; [22]): 7.44%; cytotoxicity at 10 µM (WI-38 cells [4]; [23]): 19.8% |

Source: US11413278B2, “Compounds and methods for promoting stress resistance” (priority 2015, dated 2022)
